Test results: ChEMBL document CHEMBL1201862, “PubChem BioAssay data set” (2004)
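Dose response: 5 concentrations. Exposure: 48 h. Format: 96-well plates. Endpoint: linear interpolation; highest concentration if not reached. GI50 is the concentration that inhibits growth by half.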 Activity calls are given as the source filed them. Rule as the data show it: active = GI50 up to about 1.1 µM and inactive = higher.

How the values were obtained:
Assay in all cases: DTP human tumour cell line panel, 48 h
SF-268 = tested on: SF-268
OVCAR-3 = tested on: OVCAR-3
ACHN = tested on: ACHN
NCI/ADR-RES = tested on: NCI/ADR-RES
HT-29 = tested on: HT-29
SF-295 = tested on: SF-295
MCF7 = tested on: MCF7
HL-60 = tested on: HL-60
NCI-H522 = tested on: NCI-H522
DU-145 = tested on: DU-145
IGROV-1 = tested on: IGROV-1
HOP-92 = tested on: HOP-92
M14 = tested on: M14
Malme-3M = tested on: Malme-3M
EKVX = tested on: EKVX
T47D = tested on: T47D
TK-10 = tested on: TK-10
SNB-75 = tested on: SNB-75
K562 = tested on: K562
SN12C = tested on: SN12C

Measured: GI50

CCCCCC1=CC(=O)C1(Cl)Cl
inactive: SF-268 14.7 µM | OVCAR-3 8.69 µM | ACHN 8.3 µM | NCI/ADR-RES 17.9 µM | HT-29 14.6 µM | SF-295 18.9 µM | MCF7 8.11 µM | HL-60 1.83 µM | NCI-H522 5.24 µM | DU-145 13.1 µM | IGROV-1 18.4 µM | HOP-92 13.4 µM | M14 18.4 µM | Malme-3M 9.55 µM | EKVX 20.1 µM | T47D 8.24 µM | TK-10 5.81 µM | SNB-75 11.1 µM | K562 4.68 µM | SN12C 20.3 µM
